# Values quoted from earlier work in patent US20110059177A1, “Cardioplegia Solution for Cardiac Surgery” (priority 2008, published 2011).
# Legend:
# [1] = test system: common carotid artery IMT (intima-media thickness); details: patients with coronary artery disease, 6 months
Structure (SMILES),common carotid artery IMT (intima-media thickness) [1],markers of inflammation [1],activity level relative to tetracycline (150 mg of minocycline vs 250 mg of tetracycline at 24-48 hours) [times],serum levels relative to most other tetracyclines (result of long half-life)
CCOC(=O)C1=C(C)NC(C)=C(C(=O)OCC)C1c1ccccc1/C=C/C(=O)OC(C)(C)C [Lacidipine],significant reduction,decrease,–,–
CN(C)c1ccc(O)c2c1C[C@H]1C[C@H]3[C@H](N(C)C)C(O)=C(C(N)=O)C(=O)[C@@]3(O)C(O)=C1C2=O [Minocycline],–,–,16,2-4 times
